In ChEMBL document CHEMBL1201862, “PubChem BioAssay data set” (2004):
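48-hour exposure; five concentrations; linearly interpolated endpoints. The concentration for 50% growth inhibition is given as GI50.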 The source made the active and inactive calls. Rule as the data show it: active = GI50 up to about 1.1 µM and inactive = higher.

Tests used:
Assay in all cases: NCI-60 cell line screen, 48 h
CAKI-1 = system: CAKI-1
COLO 205 = system: COLO 205
DU-145 = system: DU-145
HCT-116 = system: HCT-116
HOP-62 = system: HOP-62
HOP-92 = system: HOP-92
K562 = system: K562
MDA-MB-435 = system: MDA-MB-435
MDA-N = system: MDA-N
NCI-H460 = system: NCI-H460
OVCAR-5 = system: OVCAR-5
SK-MEL-28 = system: SK-MEL-28
SNB-75 = system: SNB-75
T47D = system: T47D
U-251 = system: U-251
CCRF-CEM = system: CCRF-CEM
HL-60 = system: HL-60
UACC-62 = system: UACC-62

SMILES | GI50 (CAKI-1) | GI50 (COLO 205) | GI50 (DU-145) | GI50 (HCT-116) | GI50 (HOP-62) | GI50 (HOP-92) | GI50 (K562) | GI50 (MDA-MB-435) | GI50 (MDA-N) | GI50 (NCI-H460) | GI50 (OVCAR-5) | GI50 (SK-MEL-28) | GI50 (SNB-75) | GI50 (T47D) | GI50 (U-251) | GI50 (CCRF-CEM) | GI50 (HL-60) | GI50 (UACC-62)
N#CC(c1cc(Cl)ncn1)c1nc2cc(C(F)(F)F)ccc2s1 (configuration not stated) | 8.95 µM (inactive) | 3.35 µM (inactive) | 12.9 µM (inactive) | 2.97 µM (inactive) | 13.8 µM (inactive) | 2.14 µM (inactive) | 6.92 µM (inactive) | 4.31 µM (inactive) | 3.42 µM (inactive) | 4.78 µM (inactive) | 3.78 µM (inactive) | 13 µM (inactive) | 5.79 µM (inactive) | 4.29 µM (inactive) | 3.08 µM (inactive) |  |  | 
CN(C)c1ccc(-c2ccc(N(C)C)c3n[se]nc23)c2n[se]nc12 | > 100 µM (inactive) |  | > 100 µM (inactive) | > 100 µM (inactive) | > 100 µM (inactive) | > 100 µM (inactive) | > 100 µM (inactive) | > 100 µM (inactive) | > 100 µM (inactive) | > 100 µM (inactive) | > 100 µM (inactive) | > 100 µM (inactive) | > 100 µM (inactive) | > 100 µM (inactive) | > 100 µM (inactive) | > 100 µM (inactive) | > 100 µM (inactive) | > 100 µM (inactive)
COc1cc2c(cc1OCCCCCN1C(=O)c3cccc4cccc(c34)C1=O)N=C[C@@H]1CCCN1C2=O | 0.208 µM (active) | 0.28 µM (active) | 0.255 µM (active) | 0.215 µM (active) | 0.262 µM (active) | 0.142 µM (active) | 0.114 µM (active) | 0.167 µM (active) | 0.207 µM (active) | 0.316 µM (active) | 0.406 µM (active) | 0.301 µM (active) | 0.34 µM (active) | 0.13 µM (active) | 0.249 µM (active) | 0.0142 µM (active) |  | 0.13 µM (active)
O=C1c2ccccc2C(=O)N1n1c(Cc2ccc(Cl)cc2)n[nH]c1=O | > 100 µM (inactive) | > 100 µM (inactive) | > 100 µM (inactive) | > 100 µM (inactive) | > 100 µM (inactive) | > 100 µM (inactive) | > 100 µM (inactive) | > 100 µM (inactive) | > 100 µM (inactive) | > 100 µM (inactive) | > 100 µM (inactive) | > 100 µM (inactive) | > 100 µM (inactive) | > 100 µM (inactive) | > 100 µM (inactive) | > 100 µM (inactive) |  | > 100 µM (inactive)
CCN(CC)c1ccc(C2NC(=O)c3ccccc3N2)cc1 (configuration not stated) | 2.82 µM (inactive) | 1.63 µM (inactive) | 1.48 µM (inactive) | 1.48 µM (inactive) | 5.7 µM (inactive) | 3.05 µM (inactive) | 1.27 µM (inactive) | 0.698 µM (active) | 0.847 µM (active) | 1.21 µM (inactive) | > 22 µM (inactive) | > 100 µM (inactive) |  | > 100 µM (inactive) | 4.34 µM (inactive) | 0.641 µM (active) | 0.522 µM (active) | 3.1 µM (inactive)
CSc1n[nH]c2[nH]nc(C)c12 | > 100 µM (inactive) | > 100 µM (inactive) | > 100 µM (inactive) | > 100 µM (inactive) | > 100 µM (inactive) | > 100 µM (inactive) | > 74 µM (inactive) | > 100 µM (inactive) | > 100 µM (inactive) | > 100 µM (inactive) | > 100 µM (inactive) | > 100 µM (inactive) | > 100 µM (inactive) | > 100 µM (inactive) | > 100 µM (inactive) | > 100 µM (inactive) |  | > 100 µM (inactive)
CSc1nc(Cl)c2c(n1)Sc1nc3ccccc3n1N=C2 | 13.4 µM (inactive) | 23 µM (inactive) | > 100 µM (inactive) | 25.1 µM (inactive) | 41.7 µM (inactive) | 18.3 µM (inactive) | 21.3 µM (inactive) | 29.7 µM (inactive) | 22 µM (inactive) | 56 µM (inactive) | 28.9 µM (inactive) | 40.8 µM (inactive) | 25.9 µM (inactive) | 23.5 µM (inactive) | 55.6 µM (inactive) | 14.9 µM (inactive) |  | 29.4 µM (inactive)
CN1CCN(Cn2nc(-c3ccccc3)n(/N=C/c3ccc(-c4ccc(Cl)cc4Cl)o3)c2=S)CC1 | 7.36 µM (inactive) |  | 8.91 µM (inactive) | 3.66 µM (inactive) | 11.4 µM (inactive) | 8.95 µM (inactive) | 2.39 µM (inactive) | 11.4 µM (inactive) | 13.4 µM (inactive) | 5.61 µM (inactive) | 15.2 µM (inactive) | 12.1 µM (inactive) |  | 15.5 µM (inactive) | 5.25 µM (inactive) | 4.17 µM (inactive) | 4.58 µM (inactive) | 
